The record followed here is patent US9029404B2, “Apoptosis-inducing agents for the treatment of cancer and immune and autoimmune diseases” (AbbVie Inc., priority 2008, dated 2015).

Some results are limits rather than exact numbers.

The target in the assay is GST-Bcl-2 (Homo sapiens, UniProt P10415). In words: Time Resolved-Fluorescence Resonance Energy Transfer (TR-FRET) Bcl-2 binding assay. The conditions noted are these: competition with F-Bak peptide probe (100 nM); GST-Bcl-2 1 nM; Tb-anti-GST 1 nM; 3 hours at room temperature; Wang's equation. The protocol: Determination of the utility of compounds having Formula (I) as binders to and inhibitors of anti-apoptotic Bcl-2 proteins was performed using the Time Resolved-Fluorescence Resonance Energy Transfer (TR-FRET) Assay. Tb-anti-GST antibody was purchased from Invitrogen (Catalog No. PV4216).
Chain of GST-Bcl-2 (P10415 whole entry): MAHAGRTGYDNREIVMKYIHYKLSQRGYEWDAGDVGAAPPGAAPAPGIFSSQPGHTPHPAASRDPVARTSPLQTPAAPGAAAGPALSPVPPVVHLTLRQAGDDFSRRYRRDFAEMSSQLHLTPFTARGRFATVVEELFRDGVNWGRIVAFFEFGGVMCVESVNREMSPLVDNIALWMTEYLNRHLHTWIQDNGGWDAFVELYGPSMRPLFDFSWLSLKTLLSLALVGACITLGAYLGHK
Representative compounds were serially diluted in dimethyl sulfoxide (DMSO) starting at 50 μM (2× starting concentration; 10% DMSO) and 10 μL were transferred into a 384-well plate. The samples are then mixed on a shaker for 1 minute and incubated for an additional 3 hours at room temperature. For each assay, the probe/antibody and protein/probe/antibody were included on each assay plate as negative and positive controls, respectively. Fluorescence was measured on the Envision (Perkin Elmer) using a 340/35 nm excitation filter and 520/525 (F-Bak peptide) and 495/510 nm (Tb-labeled anti-Histidine antibody) emission filters.
The samples were then mixed on a shaker for 1 minute and incubated for an additional 3 hours at room temperature. For each assay, the probe/antibody and protein/probe/antibody were included on each assay plate as negative and positive controls, respectively. Fluorescence was measured on the Envision (Perkin Elmer) using a 340/35 nm excitation filter and 520/525 (F-Bak peptide) and 495/510 nm (Tb-labeled anti-Histidine antibody) emission filters.
The inhibition constant (Ki) is the dissociation constant of an enzyme-inhibitor complex or a protein/small molecule complex, wherein the small molecule is inhibiting binding of one protein to another protein. So a large Ki value indicates a low binding affinity and a small Ki value indicates a high binding affinity.
In general terms: In TR-FRET formats the signal depends on donor and acceptor labels being close together.

A word on the Ki: it is the dissociation constant of the complex between target and ligand, obtained from inhibition or displacement. Read a low Ki as higher affinity. `CC1(C)CCC(CN2CCN(c3ccc(C(=O)NS(=O)(=O)c4cnc(OCC5CCC(C)(O)CC5)c(Cl)c4)c(Oc4cccc5[nH]nc(N)c45)c3)CC2)=C(c2ccc(Cl)cc2)C1` (stereo not drawn) [Example 445, 2-[(3-amino-1H-indazol-4-yl)oxy]-N-({5-chloro-6-[(trans-4-hydroxy-4-methylcyclohexyl)methoxy]pyridin-3-yl}sulfonyl)-4-(4-{[2-(4-chlorophenyl)-4,4-dimethylcyclohex-1-en-1-yl]methyl}piperazin-1-yl)benzamide] returned a Ki of under 0.01 nM. As for `CC1(C)CCC(CN2CCN(c3ccc(C(=O)NS(=O)(=O)c4cnc(OCC5CCC(C)(O)CC5)c(C#N)c4)c(Oc4cc(F)cc5[nH]ncc45)c3)CC2)=C(c2ccc(Cl)cc2)C1` (stereo not drawn) [Example 453, 4-(4-{[2-(4-chlorophenyl)-4,4-dimethylcyclohex-1-en-1-yl]methyl}piperazin-1-yl)-N-({5-cyano-6-[(trans-4-hydroxy-4-methylcyclohexyl)methoxy]pyridin-3-yl}sulfonyl)-2-[(6-fluoro-1H-indazol-4-yl)oxy]benzamide], the Ki was under 0.01 nM. Molecule `CCC1(O)CCC(CNc2ccc(S(=O)(=O)NC(=O)c3ccc(N4CCN(CC5=C(c6ccc(Cl)cc6)CC(C)(C)CC5)CC4)cc3Oc3cnc(N)c(Cl)c3)cc2[N+](=O)[O-])CC1` (stereo not drawn) [Example 447, 2-[(6-amino-5-chloropyridin-3-yl)oxy]-4-(4-{[2-(4-chlorophenyl)-4,4-dimethylcyclohex-1-en-1-yl]methyl}piperazin-1-yl)-N-[(4-{[(cis-4-ethyl-4-hydroxycyclohexyl)methyl]amino}-3-nitrophenyl)sulfonyl]benzamide] showed a Ki of 0.029 nM. In turn, `CC1(C)CC(c2ccc(Cl)cc2)=C(CN2CCN(c3ccc(C(=O)NS(=O)(=O)c4ccc(OCC5(F)CCOCC5)c([N+](=O)[O-])c4)c(Oc4cc5cc[nH]c5cc4F)c3)CC2)CO1` [Example 297, 4-(4-{[4-(4-chlorophenyl)-6,6-dimethyl-5,6-dihydro-2H-pyran-3-yl]methyl}piperazin-1-yl)-2-[(6-fluoro-1H-indol-5-yl)oxy]-N-({4-[(4-fluorotetrahydro-2H-pyran-4-yl)methoxy]-3-nitrophenyl}sulfonyl)benzamide] came in with a Ki of under 0.01 nM.

The molecule `CC1(C)CCC(CN2CCN(c3ccc(C(=O)NS(=O)(=O)c4ccc(NCC5CN(C6COC6)CCO5)c([N+](=O)[O-])c4)c(Oc4cnc(N)c(Cl)c4)c3)CC2)=C(c2ccc(Cl)cc2)C1` (stereo not shown) [Example 421, 2-[(6-amino-5-chloropyridin-3-yl)oxy]-4-(4-{[2-(4-chlorophenyl)-4,4-dimethylcyclohex-1-en-1-yl]methyl}piperazin-1-yl)-N-{[3-nitro-4-({[4-(oxetan-3-yl)morpholin-2-yl]methyl}amino)phenyl]sulfonyl}benzamide] yielded a Ki of under 0.01 nM. Then `CC1(C)CCC(CN2CCN(c3ccc(C(=O)NS(=O)(=O)c4ccc(NCC5(F)CCOCC5)c([N+](=O)[O-])c4)c(Oc4cc(F)cc5[nH]ncc45)c3)CC2)=C(c2ccc(Cl)cc2)C1` [Example 418, 4-(4-{[2-(4-chlorophenyl)-4,4-dimethylcyclohex-1-en-1-yl]methyl}piperazin-1-yl)-2-[(6-fluoro-1H-indazol-4-yl)oxy]-N-[(4-{[(4-fluorotetrahydro-2H-pyran-4-yl)methyl]amino}-3-nitrophenyl)sulfonyl]benzamide], with under 0.01 nM.

With `CC1(C)CCC(CN2CCN(c3ccc(C(=O)NS(=O)(=O)c4ccc(NCC5(F)CCOCC5)c([N+](=O)[O-])c4)c(Oc4ccc(F)c5[nH]ncc45)c3)CC2)=C(c2ccc(Cl)cc2)C1` [Example 423, 4-(4-{[2-(4-chlorophenyl)-4,4-dimethylcyclohex-1-en-1-yl]methyl}piperazin-1-yl)-2-[(7-fluoro-1H-indazol-4-yl)oxy]-N-[(4-{[(4-fluorotetrahydro-2H-pyran-4-yl)methyl]amino}-3-nitrophenyl)sulfonyl]benzamide], the Ki was under 0.01 nM.

`CC1(C)CCC(CN2CCN(c3ccc(C(=O)NS(=O)(=O)c4ccc(OCC5CCC6(CC5)COC6)c([N+](=O)[O-])c4)c(Oc4cnc(N)c(Cl)c4)c3)CC2)=C(c2ccc(Cl)cc2)C1` [Example 440, 2-[(6-amino-5-chloropyridin-3-yl)oxy]-4-(4-{[2-(4-chlorophenyl)-4,4-dimethylcyclohex-1-en-1-yl]methyl}piperazin-1-yl)-N-{[3-nitro-4-(2-oxaspiro[3.5]non-7-ylmethoxy)phenyl]sulfonyl}benzamide] registered a Ki of 0.022 nM. Then “2-[(6-amino-5-chloropyridin-3-yl)oxy]-4-(4-{[2-(4-chlorophenyl)-4,4-dimethylcyclohex-1-en-1-yl]methyl}piperazin-1-yl)-N-{[4-({[4-({[4-(methoxymethyl)cyclohexyl]methyl}amino)-3-nitrophenyl]sulfonyl}amino)-3-nitrophenyl]sulfonyl}benzamide [Example 454]”, with 0.024 nM; and `CC1(C)CCC(CN2CCN(c3ccc(C(=O)NS(=O)(=O)c4ccc(NC[C@H]5CN(C6CC6)CCO5)c([N+](=O)[O-])c4)c(Oc4cnc(N)c(Cl)c4)c3)CC2)=C(c2ccc(Cl)cc2)C1` [Example 442, 2-[(6-amino-5-chloropyridin-3-yl)oxy]-4-(4-{[2-(4-chlorophenyl)-4,4-dimethylcyclohex-1-en-1-yl]methyl}piperazin-1-yl)-N-{[4-({[(2S)-4-cyclopropylmorpholin-2-yl]methyl}amino)-3-nitrophenyl]sulfonyl}benzamide], with under 0.01 nM. Then `CC1(C)CCC(CN2CCN(c3ccc(C(=O)NS(=O)(=O)c4cnc(OCC5CCC(C)(O)CC5)c(Cl)c4)c(Oc4cccc5[nH]nc(Cl)c45)c3)CC2)=C(c2ccc(Cl)cc2)C1` (stereo not drawn) [Example 446, N-({5-chloro-6-[(trans-4-hydroxy-4-methylcyclohexyl)methoxy]pyridin-3-yl}sulfonyl)-2-[(3-chloro-1H-indazol-4-yl)oxy]-4-(4-{[2-(4-chlorophenyl)-4,4-dimethylcyclohex-1-en-1-yl]methyl}piperazin-1-yl)benzamide], with 0.015 nM. Molecule `Cn1c(=O)[nH]c2cccc(Oc3cc(N4CCN(CC5=C(c6ccc(Cl)cc6)CC(C)(C)CC5)CC4)ccc3C(=O)NS(=O)(=O)c3cnc(OCC4CCOCC4)c(Cl)c3)c21` [Example 425, 4-(4-{[2-(4-chlorophenyl)-4,4-dimethylcyclohex-1-en-1-yl]methyl}piperazin-1-yl)-N-{[5-chloro-6-(tetrahydro-2H-pyran-4-ylmethoxy)pyridin-3-yl]sulfonyl}-2-[(3-methyl-2-oxo-2,3-dihydro-1H-benzimidazol-4-yl)oxy]benzamide] yielded a Ki of 0.013 nM. Molecule `CO[C@H]1CC[C@H](CNc2ccc(S(=O)(=O)NC(=O)c3ccc(N4CCN(CC5=C(c6ccc(Cl)cc6)CC(C)(C)CC5)CC4)cc3Oc3cccc4[nH]nc(N)c34)cc2[N+](=O)[O-])CC1` [Example 435, 2-[(3-amino-1H-indazol-4-yl)oxy]-4-(4-{[2-(4-chlorophenyl)-4,4-dimethylcyclohex-1-en-1-yl]methyl}piperazin-1-yl)-N-[(4-{[(trans-4-methoxycyclohexyl)methyl]amino}-3-nitrophenyl)sulfonyl]benzamide] gave an inhibition constant (Ki) of 0.01 nM.
